One data set is described as follows: in vitro. The conditions noted are these: pH 7.4. On the procedure:
The mixture of compound and microsome was pre-incubated for 30 minutes, initiating the reaction by addition of NADPH regenerating system (1 unit/mL Isocitric dehydrogenase). At time point 0, 5, 15, 30, 45 and 60 minutes the reactions were stopped by addition of 300 μL cold acetonitrile ([…]) containing 100 ng/mL tolbutamide as internal standard (IS). The samples were immediately mixed and centrifuged at 4000 rpm for 20 min. 100 μL supernatant was transferred to a fresh 96-well containing 300 μL HPLC-grade water for quantitative analysis by LC-MS/MS (LC: Shimatzu LC 10 AD; MS/MS detection: Sciex API4000), using positive ion electrospray. Triplicate experiments (n=3) was performed for each compound. A single-exponential curve (Ct=C0*e^−kt) was fitted to the concentration-time data points to calculate the elimination rate constant (k). The following equation 1 was used to calculate the total hepatic intrinsic clearance (CLint): […]

The nature of data set [1]: Plasma protein binding, equilibrium dialysis. The class given is in vitro ADME. The note with it: human plasma dialysed against phosphate buffer, pH 7.4, mass recovery from the dialysis device. On the procedure: (§1) Human plasma was obtained from Bioreclamation (Lot No. BRH354026). A 96-Well Micro-equilibrium Dialysis Device (HT-Dialysis LLC, Model HTD 96 b) separated by dialysis membrane (MWCO 12-14k, HT Dialysis), was used to study the protein binding. The dialysis membrane strips were soaked in distilled water for 1 hour and then in 20% ethanol in water (v/v) for another 20 minutes. The membrane strips were subsequently rinsed 20 min in pure water before use. The studied compounds were individually spiked into human plasma to a final concentration of 0.2 μM, and pre-incubated for 30 min. Aliquots (150 μL) of phosphate buffer (100 mM sodium phosphate, pH 7.4) and spiked plasma was placed in the receiver and donor compartment, respectively. The dialysis block was sealed and placed in a shaker (150 rpm) for 6 hours at 37° C. Each experiment was performed in triplicates (n=3). Aliquot 50 μL from both the donor sides and receiver sides of the dialysis devise was transferred into new sample preparation plates and mixed with the aliquots with same volume of opposite matrixes (blank buffer to plasma and visa verse). […] Hundred μL of the supernatant was transferred to a new 96-well plate and mixed with 200 μL of Milli-Q water containing 0.1% FA. Drug content was quantified with LC/MS/MS (Sciex API4000).
(§2) Percent bound to plasma is calculated as follows:
(§3) % Bound=100−(100×[Receiver]6h/[Donor]6h.) Equation 2
(§4) Mass recovery of test compound from the HTDialysis after 6 h is calculated as follows:
(§5) % Recovery=100×([Donor]6h+[Receiver]6h)/[Donor]0h Equation 3
(In equilibrium dialysis free small molecules cross a membrane that holds back macromolecules.)

The test system of a further data set is human plasma proteins. As to the kind of experiment: Plasma protein binding, equilibrium dialysis. The class given is in vitro ADME. The note with it: for degree of protein binding in human plasma compared to tandospirone: One-way ANOVA with Dunnett's test vs Tandospirone. Here is the method: as §1, §2, §3, §4, §5
A further data set deals with MDR1 (P-gp). Description: Permeability over MDR1-transfected MDCK cell monolayer. The class given is in vitro ADME, Canine. The note with it: dog, donor and receiver chamber, MDR1-MDCK monolayer, 2 μM. On the procedure:
(§6) The ability of molecules to pass a biological membrane, like the gastro-intestinal epithelia and the blood-brain barrier endothelia is essential for orally delivered drugs targeting diseases in the brain. The Madin-Darby Canine Kidney (MDCK) cell line is used as an industry standard to evaluate biomembrane passage properties of drugs. […] Test compounds were diluted with the transport buffer (HBSS+1% BSA) from a 10 mM stock solution to a concentration of 2 μM and applied to the apical (A) or basolateral (B) side of the cell monolayer.
(§7) In addition, the efflux ratio of each compound was also determined.
(§8) The apparent biomembrane permeability coefficient Papp (cm/s) was calculated using the equation:
(§9) Papp=(dCr/dt)×Vr/(A×C0) Equation 4
(§10) Where dCr/dt is the cumulative concentration of compound in the receiver chamber as a function of time (μM/s); Vr is the solution volume in the receiver chamber (0.075 mL on the apical side, 0.25 mL on the basolateral side); A is the surface area for the transport, i.e. 0.084 cm2 for the area of the monolayer; Co is the initial concentration in the donor chamber.
(§11) The efflux ratio was calculated using the equation:
(§12) Efflux Ratio=Papp(BA)/Papp(AB) Equation 5
(§13) Percent recovery was calculated using the equation:
(§14) % Recovery=100×[(Vr×Cr)+(Vd×Cd)]/(Vd×C0) Equation 6
(§15) Where Vd is the volume in the donor chambers (0.075 mL on the apical side, 0.25 mL on the basolateral side); Cd and Cr are the final concentrations of transport compound in donor and receiver chambers, respectively.

Assay in data set [2]: as above
The class given is in vitro ADME, Canine. The note with it: dog; MDR1-MDCK cell monolayer, 2 μM, 150-minute incubation, apical to basolateral. On the procedure:
as §6, §7, §8, §9, §10, §11, §12, §13, §14, §15

Another data set has as its system MDR1-MDCK cell monolayer. The data set is described as above. It is filed as in vitro ADME, Canine. Here is the method: as §6, §7, §8, §9, §10, §11, §12, §13, §14, §15
Data set [3] has as its system serotonin 5-HT1A receptor. The note with it: partial agonist; Tanaka et al. 1995 and Yabuuchi et al. 2004; cited from earlier work.
Data set [4] has as its target serotonin 5-HT1A receptor. The note with it: Hamik et al. 1990; read-out: Ki affinity value; cited from earlier work.
The conditions of data set [5]: in humans; Nakashima and Kanemaru 1992; cited from earlier work.
A further data set relates to plasma proteins. The conditions noted are these: Miller et al., 1992; cited from earlier work.
[6] abbreviates: pH 7.4, 0.2 μM, equilibrium dialysis, 37° C., n=3, read-out: Protein binding (%) (converted).

Like-named read-outs stand apart in the source and are kept apart here.

For the molecule `[2H]C([2H])(CN1C(=O)[C@@H]2[C@@H]3CC[C@@H](C3)[C@@H]2C1=O)C([2H])([2H])C([2H])([2H])N1CCN(c2ncccn2)CC1` [XVIII, (1R,2R,6S,7S)-4-{4-[4-(pyrimidin-2-yl)piperazin-1-yl]-(2,2,3,3,4,4-^2H6)butyl}-4-azatricyclo[5.2.1.0^2,6]decane-3,5-dione], the CLint scaled at 1 μM in the data set “in vitro” (human, microsomes) stood at 224 mL/min/kg. This molecule also had a recovery at 6 h, 0.2 μM in data set [1] of 111%. In the data set with human plasma proteins, the “degree of protein binding in human plasma compared to tandospirone” value (from here on “degree … compared to tandospirone”) is listed as “statistically significant lower degree of protein binding”. For the same molecule, the fraction unbound at 6 h, 0.2 μM in the data set with human plasma proteins (setting [6]) is 0.47.
For the molecule `[2H]C([2H])(CCCN1C(=O)[C@@H]2[C@@H]3CC[C@@H](C3)[C@@H]2C1=O)N1CCN(c2ncccn2)CC1` [Compound II, (1R,2R,6S,7S)-4-{4-[4-(pyrimidin-2-yl)piperazin-1-yl]-(4,4-^2H2)butyl}-4-azatricyclo[5.2.1.0^2,6]decane-3,5-dione], the CLint scaled at 1 μM in the data set “in vitro” (human, microsomes) turned out to be 235 mL/min/kg. This molecule registered a recovery at 6 h, 0.2 μM in data set [1] of 95%. Besides, the “degree … compared to tandospirone” value in the data set with human plasma proteins is listed as “statistically significant lower degree of protein binding”. For the same molecule, the fraction unbound at 6 h, 0.2 μM with human plasma proteins (setting [6]) is 0.42.
For `[2H]c1cnc(N2CCN(C([2H])CCCN3C(=O)[C@@H]4[C@@H]5CC[C@@H](C5)[C@@H]4C3=O)CC2)nc1` (stereo partly drawn) [IX, (1R,2R,6S,7S)-4-{4-[4-((5-^2H)pyrimidin-2-yl)piperazin-1-yl]-(4-^2H)butyl}-4-azatricyclo[5.2.1.0^2,6]decane-3,5-dione], the “degree … compared to tandospirone” value with human plasma proteins is recorded as “statistically significant lower degree of protein binding”.
In “in vitro” (human, microsomes), `[2H]C([2H])(CCCN1C(=O)[C@@]2([2H])[C@H]3CC[C@H](C3)[C@@]2([2H])C1=O)N1CCN(c2ncccn2)CC1` [Compound XV, (1R,2R,6S,7S)-4-{4-[4-(pyrimidin-2-yl)piperazin-1-yl]-(4-^2H2)butyl}-(2,6-^2H2)-4-azatricyclo[5.2.1.0^2,6]decane-3,5-dione] gave a CLint scaled at 1 μM of 229 mL/min/kg. Further, in data set [1], the recovery at 6 h, 0.2 μM turned out to be 92%. Moreover, the fraction unbound at 6 h, 0.2 μM in the data set on human plasma proteins (setting [6]) was 0.38.
In the data set “in vitro” (human, microsomes), `O=C(O)Cc1ccccc1Nc1c(Cl)cccc1Cl` [Diclofenac, reference compound] returned a CLint scaled at 1 μM of 90 mL/min/kg.
Turning to `[2H]c1cnc(N2CCN(C([2H])([2H])CCCN3C(=O)[C@@H]4[C@H](C3=O)[C@H]3C[C@@H]4C([2H])C3[2H])CC2)nc1` (stereo partly drawn) [VII, (1R,2R,6S,7S)-4-{4-[4-((5-^2H)pyrimidin-2-yl)piperazin-1-yl]-(4,4-^2H2)butyl}-(8,9-^2H2)-4-azatricyclo[5.2.1.0^2,6]decane-3,5-dione], the CLint scaled at 1 μM in the data set “in vitro” (human, microsomes) worked out at 231 mL/min/kg. For the same molecule, the recovery at 6 h, 0.2 μM in data set [1] stood at 94%. For the same molecule, in the data set with human plasma proteins (setting [6]), the fraction unbound at 6 h, 0.2 μM was 0.31.
In “in vitro” (human, microsomes), `[2H]c1cnc(N2CCN(C([2H])([2H])CCCN3C(=O)[C@@H]4[C@@H]5CC[C@@H](C5)[C@@H]4C3=O)CC2)nc1` [Compound III, (1R,2R,6S,7S)-4-{4-[4-((5-^2H)pyrimidin-2-yl)piperazin-1-yl]-(4,4-^2H2)butyl}-4-azatricyclo[5.2.1.0^2,6]decane-3,5-dione] returned a CLint scaled at 1 μM of 219 mL/min/kg. In the data set with MDR1 (P-gp) (MDCK-MDR1 cell monolayer), this molecule came in with a recovery at 150 min, 2 μM of 112%. Moreover, the Papp A→B at 150 min, 2 μM in data set [2] is 35 ×10⁻⁶ cm/s. The “Papp, A-B compared to tandospirone” value in the data set with MDR1-MDCK cell monolayer (P<0.05, One-way ANOVA with Dunnett's test) is “statistically significant higher Papp, A-B”. Besides, the recovery at 6 h, 0.2 μM in [1] is 86%. Further, the “degree … compared to tandospirone” value in the data set with human plasma proteins is reported as “statistically significant lower degree of protein binding”. The fraction unbound at 6 h, 0.2 μM with human plasma proteins (setting [6]) was 0.51.
In the data set “in vitro”, `C[C@]12CC[C@H]3[C@@H](CCC4=CC(=O)CC[C@@]43C)[C@@H]1CC[C@@H]2O` [Testosterone, reference compound] returned a CLint scaled at 1 μM of 70 mL/min/kg.
Consider `O=C1[C@@H]2[C@@H]3CC[C@@H](C3)[C@@H]2C(=O)N1CCCCN1CCN(c2ncccn2)CC1` [Tandospirone, (1R,2R,6S,7S)-4-{4-[4-(pyrimidin-2-yl)piperazin-1-yl]butyl}-4-azatricyclo[5.2.1.0^2,6]decane-3,5-dione], for which, in data set [3], the intrinsic activity is 55-85%. In addition, the Ki in [4] is 0.027 ± 0.005 µM.
Regarding `CC(C)NCC(O)COc1cccc2ccccc12` (stereo not drawn) [Propranolol], the B-A/A-B efflux ratio in the data set on MDR1-MDCK cell monolayer (MDR1-MDCK cell monolayer, 2 μM) was 62. The “Papp, A-B (×10^−6 cm/s)” value with MDR1-MDCK cell monolayer (MDR1-MDCK cell monolayer, 2 μM, 150-minute incubation, apical to basolateral) is 15 ×10^−6 cm/s.
Take `[2H]C1C([2H])[C@@H]2C[C@H]1[C@@H]1C(=O)N(CCCC([2H])([2H])N3CCN(c4ncccn4)CC3)C(=O)[C@@H]12` (stereo partly drawn) [VI, (1R,2R,6S,7S)-4-{4-[4-(pyrimidin-2-yl)piperazin-1-yl]-(4,4-^2H2)butyl}-(8,9-^2H2)-4-azatricyclo[5.2.1.0^2,6]decane-3,5-dione]: the CLint scaled at 1 μM in the data set “in vitro” (human, microsomes) came out at 240 mL/min/kg. In addition, the recovery at 6 h, 0.2 μM in [1] turned out to be 96%. The “degree … compared to tandospirone” value with human plasma proteins is “statistically significant lower degree of protein binding”. For the same molecule, in the data set on human plasma proteins (setting [6]), the fraction unbound at 6 h, 0.2 μM is 0.43.
As for `CC(Cc1ccc(O)cc1)NCC(O)c1cc(O)cc(O)c1` (stereo not drawn) [Fenoterol], the recovery at 150 min, 2 μM with MDR1 (P-gp) amounted to 109%. The same molecule came in with a Papp A→B at 150 min, 2 μM in [2] of 0.92 ×10⁻⁶ cm/s.
As for `O=C1[C@@H]2[C@H]3CC[C@H](C3)[C@@H]2C(=O)N1CCCCN1CCN(c2ncccn2)CC1` [Tandospirone, (1R,2R,6S,7S)-4-{4-[4-(pyrimidin-2-yl)piperazin-1-yl]butyl}-4-azatricyclo[5.2.1.0^2,6]decane-3,5-dione], the “elimination half-life in the systemic circulation” value in data set [5] was 1 to 2 h. This molecule also came in with a CLint scaled at 1 μM in “in vitro” (human, microsomes) of 282 mL/min/kg. The “unbound fraction reported in the literature” value in the data set with plasma proteins is 30.4%. In the data set with MDR1 (P-gp) (MDCK-MDR1 cell monolayer), this molecule showed a recovery at 150 min, 2 μM of 107%. The Papp A→B at 150 min, 2 μM in [2] is 30 ×10⁻⁶ cm/s. In [1], the recovery at 6 h, 0.2 μM is 82%. For the same molecule, the “Protein binding (%)” value with human plasma proteins (0.2 μM, equilibrium dialysis, 37° C., n=3) came to 70%. Besides, the fraction unbound at 6 h, 0.2 μM with human plasma proteins (human, pH 7.4, read-out: observed unbound fraction) amounted to 0.3.

By CLint scaled is commonly meant the capacity of the preparation to metabolise the compound, expressed as a volume cleared per time. A low value points to slow turnover. The Papp A→B is how fast a substance crosses the layer from the apical side. One may read the Ki as the dissociation constant of the complex between target and ligand, obtained from inhibition or displacement.

The values are drawn from patent publication US20130303497A1, “DEUTERATED 5-HT1A RECEPTOR AGONISTS” (priority 2010, published 2013).
